Results as given in patent publication US9649295B2, “Chemical inhibitors of soluble adenylyl cyclase (sAC)” (Cornell Research Foundation, Inc., priority 2004, dated 2017).

What was measured:
[1] = target: T1, purified solubilized version of Type VII tmAC (sol.AC7) (Homo sapiens, UniProt P51828); assay: in vitro cyclase activity of purified solubilized Type VII tmAC; type: biochemical; details: read-out: in vitro IC50 pure sol.AC7
T1 construct: a mixture of purified catalytic domains, C1 and C2, from Type VII tmAC; made in house
T1 sequence (P51828 279-406 limits assumed): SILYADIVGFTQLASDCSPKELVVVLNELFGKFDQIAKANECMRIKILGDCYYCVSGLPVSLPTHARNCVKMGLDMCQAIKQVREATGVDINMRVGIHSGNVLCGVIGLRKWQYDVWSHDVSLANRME
T1 sequence (P51828 879-1023 limits assumed): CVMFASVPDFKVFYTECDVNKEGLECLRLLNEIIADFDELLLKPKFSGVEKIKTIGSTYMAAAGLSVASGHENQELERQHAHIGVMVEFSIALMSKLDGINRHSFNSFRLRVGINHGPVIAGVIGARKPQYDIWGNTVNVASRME

[2] = target: T2, Type II tmAC (tmAC in extracts) (Homo sapiens, UniProt Q08462); assay: in vitro cyclase activity in extracts of cells overexpressing Type II tmAC; type: biochemical; details: cell printing μM
T2 construct: expressed in transfected cells
T2 sequence (Q08462 whole entry): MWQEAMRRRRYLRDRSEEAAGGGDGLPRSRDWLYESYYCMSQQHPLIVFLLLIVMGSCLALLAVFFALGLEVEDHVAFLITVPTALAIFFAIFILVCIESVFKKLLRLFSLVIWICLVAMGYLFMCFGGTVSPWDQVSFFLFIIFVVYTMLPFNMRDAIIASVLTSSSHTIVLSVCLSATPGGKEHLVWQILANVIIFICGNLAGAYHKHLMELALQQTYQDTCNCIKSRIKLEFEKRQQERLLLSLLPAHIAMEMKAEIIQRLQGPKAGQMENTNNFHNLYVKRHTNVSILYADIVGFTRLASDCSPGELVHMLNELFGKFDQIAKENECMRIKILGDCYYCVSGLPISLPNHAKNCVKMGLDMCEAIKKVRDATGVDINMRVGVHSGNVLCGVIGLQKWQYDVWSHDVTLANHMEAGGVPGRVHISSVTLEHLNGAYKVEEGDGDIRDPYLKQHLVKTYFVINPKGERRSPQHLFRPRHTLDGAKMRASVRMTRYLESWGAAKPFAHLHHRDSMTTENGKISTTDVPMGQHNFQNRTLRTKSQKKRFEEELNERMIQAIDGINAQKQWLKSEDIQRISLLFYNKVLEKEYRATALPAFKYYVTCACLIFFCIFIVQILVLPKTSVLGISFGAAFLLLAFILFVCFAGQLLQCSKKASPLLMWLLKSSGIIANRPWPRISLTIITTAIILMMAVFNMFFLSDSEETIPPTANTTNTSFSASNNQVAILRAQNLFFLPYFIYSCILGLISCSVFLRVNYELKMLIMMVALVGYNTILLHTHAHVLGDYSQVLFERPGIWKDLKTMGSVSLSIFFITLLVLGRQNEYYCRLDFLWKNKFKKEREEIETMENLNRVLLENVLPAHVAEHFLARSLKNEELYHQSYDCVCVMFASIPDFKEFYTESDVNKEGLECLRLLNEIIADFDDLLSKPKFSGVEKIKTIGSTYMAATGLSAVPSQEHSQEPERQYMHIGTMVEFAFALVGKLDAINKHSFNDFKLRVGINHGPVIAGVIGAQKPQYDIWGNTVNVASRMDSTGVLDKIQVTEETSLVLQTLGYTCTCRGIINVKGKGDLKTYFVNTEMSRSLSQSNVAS

[3] = tested on: tmACs; assay: cAMP forming activity inside cells stimulated with forskolin; type: cell-based; details: read-out: in vivo IC50 tmAC (FSK)
[4] = tested on: CREB phosphorylation in isolated nuclei; assay: CREB phosphorylation in isolated HeLa nuclei (P2), Western analysis; type: biochemical; details: 40 mM bicarbonate, 50 μM KH7
Experimental: The resuspended pellet and 60% OptiPrep iodixanol were mixed (30% OptiPrep final) and centrifuged at 10,000 g for 20 min. The supernatant was removed and the nuclei-enriched pellet (P2) was resuspended in TM-2 buffer without detergent.
Reactions were stopped by the addition of 20 μl of SDS sample buffer (CREB phosphorylation) or by being placed into a 100° C. heat block for 3 min (adenylyl cyclase).
For whole cell and isolated nuclei CREB phosphorylation assays, equal cell or nuclear equivalents were separated under reducing conditions using a 10% SDS-PAGE, transferred to a PVDF membrane, and probed for CREB (rabbit polyclonal antiserum; Chemicon, Temecula, Calif.) and phosphorylated CREB (rabbit polyclonal antiserum; Upstate Biotechnology, Temecula, Calif.). HRP-conjugated secondary antibodies were used, and bands were visualized using ECL. Image analysis software (model Fluorchem 8800; Alpha Innotech, San Leandro, Calif.) was used to quantitate Western results. Intensities of phospho-CREB bands were normalized to total CREB.

[5] = tested on: INS-1E cells; assay: insulin release in INS-1E cells; type: cell-based; details: for effect on PMA induced insulin release: PMA 300 nM, 2.5 mM glucose, KH7 30 μM
Experimental: (§1) Briefly, cells (passage 140-150) were plated at 2.5×10^5 cells/well in a 24 well plate and permitted to recover for two days. Cells were glucose starved by incubation for 1 hour in the presence of 2.5 mM glucose KRB medium supplemented with 2 mM sodium bicarbonate, 10 mM Hepes, and 0.1% BSA. After washing, cells were incubated in KRB with either 2.5 mM or 16 mM glucose in the presence of either vehicle control (DMSO or MeOH) or indicated drug. After the indicated time, removed media was cleared of cell debris and secreted insulin was measured by Insulin ELISA kit (Linco Research, St. Charles, Mo., or ALPCO, Windham, N.H.). If cAMP was to be concomitantly measured, cells were pre-treated with IBMX for the final 10 minutes of the glucose starvation and IBMX was included in all subsequent incubations. For the washout experiment, subsequent to initial insulin determination, cells treated with KH7 were placed in fresh KRB (2.5 mM glucose) for an additional hour and insulin release was measured as above in the absence of any added drug. For transferrin recycling, loading of cells with I^125 transferrin was performed during hour incubation in 2.5 mM glucose KRB.

[6] = tested on: cAMP in INS-1E cells; assay: intracellular cAMP in INS-1E cells; type: cell-based
Experimental: as §1

[7] = tested on: INS-1E cells; assay: transferrin recycling in INS-1E cells; type: cell-based; details: 30 minutes, KH7 30 μM
Experimental: as §1

[8] = tested on: primary mouse islets; assay: insulin release from isolated mouse islets; type: cell-based; details: 16.7 mM glucose, 30 minutes, 30 μM KH7
Experimental: After several washes with Hank's Balanced Salt Solution, islets were hand-picked and 15-20 islets were distributed into each well of a 12 well plate to adhere overnight in RPMI-1640 media supplemented with 10 mM HEPES, 5.6 mM glucose, 10% FBS, 2 mM L-glutamine, 1 mM sodium pyruvate, and antibiotics.
Insulin release from isolated islets was performed in 12 well plates. Islets were preincubated in KRB (2.8 mM glucose) for 1 hour followed by incubation for 30 minutes in 2.8 mM glucose KRB in the presence of drug. The same wells were then incubated for an additional 30 minutes in 16.7 mM glucose KRB in the presence of the same drugs. Media was removed, cleared of cells, and insulin was measured.

[9] = tested on: sAC overexpressing INS-1E cells; assay: insulin secretion in sAC overexpressing INS-1E cells (SF2); type: cell-based; details: 30 μM KH7, 15 minutes
Text: FIGS. 14A-C illustrate that sAC-generated cAMP, distinct from tmAC-generated cAMP, is sufficient to elicit insulin secretion. […] Shown is a representative assay repeated at least five times; values indicate duplicate determinations with standard deviations. […] Shown is a representative assay repeated at least five times; values indicate duplicate determinations with standard deviations. Insert is a Western blot indicating the levels of sAC protein in INS-1E, SF2, and SF5 cells. […] Values represent mean±SEM (n=3). ANOVA analysis was performed with asterisks indicating statistically significant differences. ***=p<0.001. […]
Briefly, cells (passage 140-150) were plated at 2.5×10^5 cells/well in a 24 well plate and permitted to recover for two days. […] After the indicated time, removed media was cleared of cell debris and secreted insulin was measured by Insulin ELISA kit (Linco Research, St. Charles, Mo., or ALPCO, Windham, N.H.). If cAMP was to be concomitantly measured, cells were pre-treated with IBMX for the final 10 minutes of the glucose starvation and IBMX was included in all subsequent incubations. For the washout experiment, subsequent to initial insulin determination, cells treated with KH7 were placed in fresh KRB (2.5 mM glucose) for an additional hour and insulin release was measured as above in the absence of any added drug. […]

[10] = toxicity observation and post-mortem analysis in mice; type: in vivo, mouse; details: single injection
[11] = tested on: Plasmodium falciparum; assay: Plasmodium falciparum viability, luciferase assay; type: cell-based; details: 24 hours
Experimental: . Plasmodium cultures were incubated in the indicated concentrations of KH7 or KH7.15 for 24 hours and viability assessed by luciferase assay (FIG. 16A). […].
Therefore, the effect of sAC inhibitors on P. falciparum viability was tested. […].

[12] = tested on: PfAC; assay: adenylyl cyclase activity in whole cell extract of isolated parasites; type: biochemical, Plasmodium falciparum; details: MnCl2 and ATP
[13] = target: catalytic portion of the sAC-like adenylyl cyclase from Candida albicans (fragment JR3) (Candida albicans, UniProt A0A1D8PR83); assay: biochemical
Sequence of catalytic portion of the sAC-like adenylyl cyclase from Candida albicans (fragment JR3) (A0A1D8PR83 entry or part of it): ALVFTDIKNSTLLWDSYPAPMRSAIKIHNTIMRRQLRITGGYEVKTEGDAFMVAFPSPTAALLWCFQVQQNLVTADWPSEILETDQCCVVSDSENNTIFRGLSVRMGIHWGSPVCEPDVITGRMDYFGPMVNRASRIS
Text: (§2) . FIG. 17A illustrates the bicarbonate dependence of the JR3 fragment; […];

[14] = tested on: Candida albicans; assay: CO2 induced differentiation of Candida albicans into the filamentous stage; type: cell-based; details: similar dose dependency as on JR3
Text: as §2

[15] = 16 mM glucose, 30 μM KH7, 30 μM KH7.15, 50 μM 2-hydroxyestradiol, 50 μM 2′5′ddAdo

CC(Sc1nc2ccccc2[nH]1)C(=O)N/N=C/c1cc(Br)ccc1O (stereo not shown) [KH7]
IC50 [1]: > 55 µM | IC50 [2]: > 100 µM | IC50 [3]: > 500 µM | effect on bicarbonate-induced CREB phosphorylation [4]: effective in preventing bicarbonate-induced CREB phosphorylation | rescue of KH7 inhibition of GSIS by cAMP analog ([5]; 50 μM KH7, 1 mM 8-Br-SpcAMP): rescued by addition of a membrane-permeable cAMP analog | effect on glucose-stimulated insulin secretion (GSIS) [5, 15]: blocked all insulin release induced by high glucose | cellular toxicity ([5]; INS-1E cells): not due to cellular toxicity | IC50 ([5]; INS-1E, 0.5 h, 16 mM glucose, 30 minutes, read-out: IC50 for inhibition of glucose-stimulated insulin secretion (GSIS)): ~5 µM | effect on PMA induced insulin release ([5]; 30 minutes): unaffected | effect on PMA induced insulin release ([5]; 30 minutes, listed as K17): does not affect | insulin release over time after addition of high glucose ([5]; in the presence of KH7): no significant insulin release was observed up to 45 minutes | GSIS after drug washout ([5]; sixty minutes following removal of drug): normal GSIS was restored | IC50 for blocking glucose-induced cAMP, compared with sAC inhibition [6]: matched its dose response of sAC inhibition | effect on cAMP induced by high glucose [6, 15]: blocked the cAMP induced by the presence of high glucose | effect on transferrin recycling [7]: unaffected | effect on transferrin recycling ([7]; listed as K17): does not affect | effect on insulin release induced by high glucose in islets [8]: inhibited insulin release induced by high glucose | effect on sAC overexpression-induced increase in insulin release [9]: inhibited | behavior or stressful responses to injection [10]: did not elicit any behavior or stressful responses inconsistent with a simple saline injection | toxicity to mice [10]: did not appear to be toxic | anatomical, histological, and blood post-mortem analysis ([10]; within 48 hours after drug treatment): no significant toxicology or histological pathology | effect on infectious growth in red blood cells [11]: rapidly (in a single generation) and potently affected | dose response for inhibiting PfAC activity versus killing parasites [12]: equal dose responses at killing parasites and at inhibiting PfAC activity | IC50 [13]: ~23 µM | effect on CO2 induced differentiation into the filamentous, infectious stage [14]: dose dependently inhibited
